Measured values taken from PubChem BioAssay (NCI).
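Briefly, cells in 96-well plates were exposed to five compound concentrations for 48 h, and endpoints were estimated by linear interpolation. GI50 = concentration required for 50% inhibition of growth. TGI: total growth inhibition.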

Columns and labels:
Experiment in all cases: NCI tumour cell line growth inhibition, 48 h
SK-MEL-2 melanoma = tested on: SK-MEL-2 melanoma
SN12C renal = tested on: SN12C renal
SF-295 CNS = tested on: SF-295 CNS
COLO 205 colon = tested on: COLO 205 colon
M14 melanoma = tested on: M14 melanoma
SNB-75 CNS = tested on: SNB-75 CNS
NCI-H522 lung = tested on: NCI-H522 lung
EKVX NSCLC = tested on: EKVX NSCLC
SW-620 colon = tested on: SW-620 colon
NCI-H460 lung = tested on: NCI-H460 lung

| Structure (SMILES) | GI50 (SK-MEL-2 melanoma) | TGI (SK-MEL-2 melanoma) | GI50 (SN12C renal) | TGI (SN12C renal) | GI50 (SF-295 CNS) | TGI (SF-295 CNS) | GI50 (COLO 205 colon) | TGI (COLO 205 colon) | GI50 (M14 melanoma) | TGI (M14 melanoma) | GI50 (SNB-75 CNS) | TGI (SNB-75 CNS) | GI50 (NCI-H522 lung) | TGI (NCI-H522 lung) | GI50 (EKVX NSCLC) | TGI (EKVX NSCLC) | GI50 (SW-620 colon) | TGI (SW-620 colon) | GI50 (NCI-H460 lung) | TGI (NCI-H460 lung) |
| --- | --- | --- | --- | --- | --- | --- | --- | --- | --- | --- | --- | --- | --- | --- | --- | --- | --- | --- | --- | --- |
| COc1ccc2c(c1)CC[C@@H]1[C@@H]2CC[C@]2(C)c3[nH]ncc3C[C@@H]12 | 17 µM | > 50 µM | 18 µM | > 50 µM | 12.6 µM | 27.5 µM | 14.5 µM | > 50 µM | 16.4 µM | > 50 µM | 21.9 µM | > 50 µM | 10.3 µM | 27.4 µM | 16.3 µM | > 50 µM | 16.1 µM | > 50 µM |  |  |
| CC(N)(Cc1c[nH]c2ccccc12)C(=O)O (stereo not drawn) | > 2500 µM | > 2500 µM | > 2500 µM | > 2500 µM | > 2500 µM | > 2500 µM | > 2500 µM | > 2500 µM | > 2500 µM | > 2500 µM | > 2500 µM | > 2500 µM | > 2500 µM | > 2500 µM | > 2500 µM | > 2500 µM | > 2500 µM | > 2500 µM | > 2500 µM | > 2500 µM |
| NC(=S)N/N=C1\C(=O)N(CCc2ccccc2)C(=O)C1C(=O)NCCc1ccccc1 (stereo not drawn) |  | > 100 µM |  | > 100 µM |  | > 100 µM |  | > 100 µM |  | > 100 µM |  | > 100 µM |  | > 100 µM |  | > 100 µM |  | > 100 µM |  | > 100 µM |
| NC(=O)c1ccc2nc(-c3ccc(C4(N)CCC4)cc3)c(-c3ccccc3)n2n1 | 15.2 µM | 31.5 µM | 12 µM | 27.5 µM | 1.26 µM | 15.4 µM | 0.976 µM | 19 µM | 14.3 µM | 28.6 µM | 0.0922 µM | 5.21 µM | 16.7 µM | 33.9 µM | 13.6 µM | 49.6 µM | 15 µM | 31.3 µM | 2.15 µM | 19.4 µM |
| COc1ccc2c(c1)C(=O)c1c-2c(OCCN(C)C)nc2cc(OC)ccc12 | 3.31 µM | 10.3 µM | 1.06 µM | 2.69 µM | 2.22 µM | 11.5 µM | 0.571 µM | 10.8 µM | 1.51 µM | 3.05 µM | 1.99 µM | 9.02 µM | 0.75 µM | 2.66 µM | 2.13 µM | 8.63 µM | 0.446 µM | 1.73 µM | 0.411 µM | 1.51 µM |
| C=CC(=O)NCCOc1cccc(Nc2cc(NCCCNC(=O)C3CCC3)c(Br)cn2)c1 | 2.62 µM | 6.55 µM | 0.623 µM | > 25 µM | 1.34 µM | 23.4 µM | 0.632 µM | 2.1 µM | 1.79 µM | 7.86 µM | 0.252 µM | 1.38 µM | 0.819 µM | 4.96 µM | 2.31 µM | 22.5 µM | 0.904 µM | 6.53 µM | 1.12 µM | 4.53 µM |
| CCCCCCCCCCCCOC1C(CNCC2OC3OC(C)(C)OC3C2NC(=O)Nc2ccc(C(F)(F)F)cc2)OC2OC(C)(C)OC21 (stereo not drawn) | 9.09 µM | 19.3 µM | 7.04 µM | 15.3 µM | 9 µM | 17.9 µM | 3.26 µM | 7.32 µM | 8.27 µM | 15.8 µM | 6.04 µM | 13.4 µM | 3.96 µM | 9.21 µM | 7.49 µM | 14.5 µM | 4.09 µM | 10.2 µM | 4.23 µM | 11.8 µM |
| CC(C)(C)OC(=O)N1CC(Cn2cc(C(F)(F)F)c3c(Cl)ncnc32)C1 | 1.84 µM | 3.47 µM | 2.32 µM | 6.12 µM | 1.99 µM | 4.75 µM | 12.6 µM | 28.5 µM | 1.72 µM | 3.38 µM | 4.99 µM | 18.1 µM | 13.3 µM | 28.4 µM | 2.63 µM | 10.2 µM | 3.3 µM | 10.6 µM | 2.06 µM | 3.99 µM |
| CNS(=O)(=O)c1ccccc1C(=N)c1ccccc1 |  | > 100 µM |  | > 100 µM |  | > 100 µM |  | > 100 µM |  | > 100 µM |  | > 100 µM |  | > 100 µM |  | > 100 µM |  | > 100 µM |  | > 100 µM |
| COc1cc(CNc2nc3cc(N)cc(N)c3nc2-c2ccccc2)cc(OC)c1OC | 16.1 µM | > 50 µM | 8.66 µM | 16.7 µM | 1.67 µM | 5.62 µM | 3.77 µM | > 50 µM | 9.52 µM | 18.2 µM | 0.813 µM | 14.6 µM | > 50 µM | > 50 µM | 1.94 µM | 8.31 µM | 1.54 µM | 4.51 µM | 1.53 µM | > 50 µM |
| COc1cc2cn3c4ccc(O)cc4nc(N)c3c2cc1OC | 1.89 µM | 7.61 µM | 0.295 µM | 13 µM | 0.265 µM | 11.5 µM | 0.342 µM | 6.6 µM | 0.167 µM | 8.33 µM | 0.0886 µM | 7.49 µM | 0.0713 µM | 1.91 µM | 2.79 µM | 15.4 µM | 0.119 µM | 16 µM | 0.289 µM | 2.36 µM |
| COc1cc(/C=C/C(=O)NC[C@]2(O)CCC3C4CCc5cc(O)ccc5C4CCC32C)ccc1O (stereo partly drawn) | 38.8 µM | > 100 µM | 25.4 µM | > 100 µM | 6.71 µM | > 100 µM | 13.4 µM | 64.5 µM | 4.99 µM | 37.6 µM | 42.5 µM | > 100 µM | 6.89 µM | 51.7 µM | 13.9 µM | > 100 µM | 34.1 µM | > 100 µM | 9.47 µM | > 100 µM |
| CCCCNC(=O)OCC(COc1ccccc1OC)OC(=O)NCCCC (stereo not drawn) |  | > 100 µM |  | > 100 µM |  | > 100 µM |  | > 100 µM |  | > 100 µM |  | > 100 µM |  | > 100 µM |  | > 100 µM |  | > 100 µM |  | > 100 µM |
| COc1ccc(C(=O)Nc2ccc(S(=O)(=O)NCC(=O)O)cc2)cc1 |  | > 100 µM |  | > 100 µM |  | > 100 µM |  | > 100 µM |  | > 100 µM |  | > 100 µM |  | > 100 µM |  | > 100 µM |  | > 100 µM |  | > 100 µM |
